In patent publication US12252701B2, “Chimeric antigen receptor T cell therapy” (KITE PHARMA, INC., priority 2020, dated 2025):
Like-named read-outs stand apart in the source and are kept apart here.

What was measured:
CD19 CAR T cells = experiment: CAR T cell cytokine production (Luminex) under CD19 K562, KIP-1 or CD2/3/28 stimulation; conditions: 72 h; for IC50: Homo sapiens, T-cell
Nalm-6 luc = experiment: CAR-T cell killing assay (luciferase viability of tumor cells)
[1] = cited from earlier work
CAR-T cells = experiment: CAR-T cell expansion assay (KIP-1 or CD3/CD28 stimulation); conditions: CD3/CD28
[2] = read-out: Suppression of cytokine production, GMCSF (IC50), CD3/CD28 stimulation, 72 h
[3] = read-out: Suppression of cytokine production, GMCSF (IC50), K562-CD19 stimulation, 72 h
[4] = read-out: Suppression of cytokine production, GzB (IC50), CD3/CD28 stimulation, 72 h
[5] = read-out: Suppression of cytokine production, GzB (IC50), K562-CD19 stimulation, 72 h
[6] = read-out: Suppression of cytokine production, GzB (IC50), KIP-1 stimulation, 72 h
[7] = read-out: Suppression of cytokine production, IFNg (IC50), CD3/CD28 stimulation, 72 h
[8] = read-out: Suppression of cytokine production, IFNg (IC50), KIP-1 stimulation, 72 h
[9] = read-out: Suppression of cytokine production, IL-2Ra (IC50), CD3/CD28 stimulation, 72 h
[10] = read-out: Suppression of cytokine production, IL-2Ra (IC50), K562-CD19 stimulation, 72 h
[11] = read-out: Suppression of cytokine production, IL-8 (IC50), CD3/CD28 stimulation, 72 h
[12] = read-out: Suppression of cytokine production, IL-8 (IC50), K562-CD19 stimulation, 72 h
[13] = read-out: Suppression of cytokine production, IL-10 (IC50), CD3/CD28 stimulation, 72 h
[14] = read-out: Suppression of cytokine production, MIG (IC50), CD3/CD28 stimulation, 72 h
[15] = read-out: Suppression of cytokine production, MIP-1a (IC50), CD3/CD28 stimulation, 72 h
[16] = read-out: Suppression of cytokine production, MIP-1a (IC50), K562-CD19 stimulation, 72 h
[17] = read-out: Suppression of cytokine production, MIP-1a (IC50), KIP-1 stimulation, 72 h
[18] = read-out: Suppression of cytokine production, MIP-1b (IC50), CD3/CD28 stimulation, 72 h
[19] = read-out: Suppression of cytokine production, MIP-1b (IC50), K562-CD19 stimulation, 72 h
[20] = read-out: Suppression of cytokine production, MIP-1b (IC50), KIP-1 stimulation, 72 h
[21] = read-out: Suppression of cytokine production, Perforin (IC50), CD3/CD28 stimulation, 72 h
[22] = read-out: Suppression of cytokine production, Perforin (IC50), K562-CD19 stimulation, 72 h
[23] = read-out: Suppression of cytokine production, Perforin (IC50), KIP-1 stimulation, 72 h

C[C@@H]1C[C@H]2[C@@H]3CCC4=CC(=O)C=C[C@]4(C)[C@@]3(F)[C@@H](O)C[C@]2(C)[C@@]1(O)C(=O)CO [dexamethasone]
Suppression of cytokine production, MCP-1, % inh. (CD19 CAR T cells; CD3/CD28 stimulation): >80% inh.
Suppression of cytokine production, TNFa, % inh. (CD19 CAR T cells; CD3/CD28 stimulation): >50% inh.
IC50 (CD19 CAR T cells; [2]): > 10000 nM
IC50 (CD19 CAR T cells; [3]): > 10000 nM
IC50 (CD19 CAR T cells; [4]): > 10000 nM
IC50 (CD19 CAR T cells; [5]): > 10000 nM
IC50 (CD19 CAR T cells; [6]): > 10000 nM
IC50 (CD19 CAR T cells; [7]): > 10000 nM
IC50 (CD19 CAR T cells; read-out: Suppression of cytokine production, IFNg (IC50), K562-CD19 stimulation, 72 h): > 10000 nM
IC50 (CD19 CAR T cells; [8]): > 10000 nM
IC50 (CD19 CAR T cells; [9]): > 10000 nM
IC50 (CD19 CAR T cells; [10]): > 10000 nM
IC50 (CD19 CAR T cells; [11]): > 10000 nM
IC50 (CD19 CAR T cells; [12]): > 10000 nM
IC50 (CD19 CAR T cells; [13]): > 10000 nM
IC50 (CD19 CAR T cells; [14]): > 10000 nM
IC50 (CD19 CAR T cells; [15]): > 10000 nM
IC50 (CD19 CAR T cells; [16]): > 10000 nM
IC50 (CD19 CAR T cells; [17]): > 10000 nM
IC50 (CD19 CAR T cells; [18]): > 10000 nM
IC50 (CD19 CAR T cells; [19]): > 10000 nM
IC50 (CD19 CAR T cells; [20]): > 10000 nM
IC50 (CD19 CAR T cells; [21]): > 10000 nM
IC50 (CD19 CAR T cells; [22]): > 10000 nM
IC50 (CD19 CAR T cells; [23]): > 10000 nM
Suppression of cytokine production, IL-6, % inh. (CD19 CAR T cells; KIP-1 stimulation): 66% inh.
Suppression of cytokine production, IL-10, % inh. (CD19 CAR T cells; KIP-1 stimulation): 50% inh.
Suppression of cytokine production, MCP-1, % inh. (CD19 CAR T cells; KIP-1 stimulation): 66% inh.
Suppression of cytokine production, MIG, % inh. (CD19 CAR T cells; KIP-1 stimulation): 50% inh.
Suppression of cytokine production, TNFa, % inh. (CD19 CAR T cells; KIP-1 stimulation): 75% inh.
Mean tumor cell death (%) (Nalm-6 luc; E:T ratio 1:1, dose 10 nM): 98.09%
Mean tumor cell death (%) (Nalm-6 luc; E:T ratio 1:1, dose 100 nM): 92.30%
Mean tumor cell death (%) (Nalm-6 luc; E:T ratio 1:1, dose 250 nM): 97.15%
Mean tumor cell death (%) (Nalm-6 luc; E:T ratio 1:3, dose 10 nM): 34.66%
Mean tumor cell death (%) (Nalm-6 luc; E:T ratio 1:3, dose 100 nM): 19.94%
Mean tumor cell death (%) (Nalm-6 luc; E:T ratio 1:3, dose 250 nM): 20.38%
Mean tumor cell death (%) (Nalm-6 luc; E:T ratio 1:9, dose 10 nM): 7.08%
Mean tumor cell death (%) (Nalm-6 luc; E:T ratio 1:9, dose 100 nM): 3.02%
Mean tumor cell death (%) (Nalm-6 luc; E:T ratio 1:9, dose 250 nM): 2.48%
Cmax ([1]; human, in vivo): 115 ng/mL
Protein binding ([1]; plasma protein binding, reported): 77%
% viability (CAR-T cells; dose 50 nM, day 4): 45.9%
% viability (CAR-T cells; dose 50 nM, day 8): 44.4%
% viability (CAR-T cells; dose 50 nM, day 12): 74.7%
% viability (CAR-T cells; dose 100 nM, day 4): 53.4%
% viability (CAR-T cells; dose 100 nM, day 8): 51.3%
% viability (CAR-T cells; dose 100 nM, day 12): 66.3%

N#CCC1(n2cc(-c3ncnc4[nH]ccc34)cn2)CN(C2CCN(C(=O)c3ccnc(C(F)(F)F)c3F)CC2)C1 [itacitinib]
IC50 (CD19 CAR T cells; [2]): < 100 nM
IC50 (CD19 CAR T cells; [3]): 377 nM
IC50 (CD19 CAR T cells; read-out: Suppression of cytokine production, GMCSF (IC50), KIP-1 stimulation, 72 h): 273 nM
IC50 (CD19 CAR T cells; [4]): 2740 nM
IC50 (CD19 CAR T cells; [5]): > 10000 nM
IC50 (CD19 CAR T cells; [6]): > 10000 nM
IC50 (CD19 CAR T cells; [7]): > 10000 nM
IC50 (CD19 CAR T cells; [8]): > 10000 nM
IC50 (CD19 CAR T cells; [9]): 144 nM
IC50 (CD19 CAR T cells; [10]): < 100 nM
IC50 (CD19 CAR T cells; read-out: Suppression of cytokine production, IL-2Ra (IC50), KIP-1 stimulation, 72 h): < 100 nM
IC50 (CD19 CAR T cells; read-out: Suppression of cytokine production, IL-6 (IC50), CD3/CD28 stimulation, 72 h): < 100 nM
IC50 (CD19 CAR T cells; read-out: Suppression of cytokine production, IL-6 (IC50), KIP-1 stimulation, 72 h): 1970 nM
IC50 (CD19 CAR T cells; [11]): < 100 nM
IC50 (CD19 CAR T cells; [12]): < 100 nM
IC50 (CD19 CAR T cells; read-out: Suppression of cytokine production, IL-8 (IC50), KIP-1 stimulation, 72 h): < 100 nM
IC50 (CD19 CAR T cells; [13]): < 100 nM
IC50 (CD19 CAR T cells; read-out: Suppression of cytokine production, IL-10 (IC50), K562-CD19 stimulation, 72 h): < 100 nM
IC50 (CD19 CAR T cells; read-out: Suppression of cytokine production, IL-10 (IC50), KIP-1 stimulation, 72 h): < 100 nM
IC50 (CD19 CAR T cells; read-out: Suppression of cytokine production, MCP-1 (IC50), CD3/CD28 stimulation, 72 h): < 100 nM
IC50 (CD19 CAR T cells; read-out: Suppression of cytokine production, MCP-1 (IC50), K562-CD19 stimulation, 72 h): < 100 nM
IC50 (CD19 CAR T cells; read-out: Suppression of cytokine production, MCP-1 (IC50), KIP-1 stimulation, 72 h): 2580 nM
IC50 (CD19 CAR T cells; [14]): 549 nM
IC50 (CD19 CAR T cells; read-out: Suppression of cytokine production, MIG (IC50), K562-CD19 stimulation, 72 h): < 100 nM
IC50 (CD19 CAR T cells; read-out: Suppression of cytokine production, MIG (IC50), KIP-1 stimulation, 72 h): < 100 nM
IC50 (CD19 CAR T cells; [15]): 361 nM
IC50 (CD19 CAR T cells; [16]): 167 nM
IC50 (CD19 CAR T cells; [17]): 1420 nM
IC50 (CD19 CAR T cells; [18]): < 100 nM
IC50 (CD19 CAR T cells; [19]): 149 nM
IC50 (CD19 CAR T cells; [20]): 553 nM
IC50 (CD19 CAR T cells; [21]): 1600 nM
IC50 (CD19 CAR T cells; [22]): < 100 nM
IC50 (CD19 CAR T cells; [23]): 431 nM
IC50 (CD19 CAR T cells; read-out: Suppression of cytokine production, TNFa (IC50), CD3/CD28 stimulation, 72 h): < 100 nM
IC50 (CD19 CAR T cells; read-out: Suppression of cytokine production, TNFa (IC50), K562-CD19 stimulation, 72 h): < 100 nM
IC50 (CD19 CAR T cells; read-out: Suppression of cytokine production, TNFa (IC50), KIP-1 stimulation, 72 h): 320 nM
Suppression of cytokine production, IFNg (IC50) (CD19 CAR T cells; K562-CD19 stimulation): Suppress
Suppression of cytokine production, IL-6 (IC50) (CD19 CAR T cells; K562-CD19 stimulation): Suppress
